Counter-ions that a name gives are not always drawn. Like-named read-outs stand apart in the source and are kept apart here.
How the values were obtained:
HT-1197 cells = assay: Cell-based assay: anti-proliferative activity, Cell Counting Kit-8, 72 hours (HT-1197, negative control without MELK expression); conditions: 72 hours
Outline: (§1)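 First, lysates underwent western blotting with anti-MELK antibody to establish expression. Next, cells went into 96-well plates. Then candidate inhibitors were added. Finally, viability was determined by CCK-8 at 72 h and IC50 computed.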

22Rv1 cells [1] = assay: Cell-based assay: anti-proliferative activity, Cell Counting Kit-8, 72 hours (22Rv1); conditions: Homo sapiens
MELK = MELK (Homo sapiens, UniProt Q14680); assay: Kinase assay: MELK activity, phosphorylation of FITC-labeled histone H3 peptide measured by IMAP fluorescence polarization; assay type: biochemical; conditions: read-out: IC50 (μM) (kinase assay)
Outline: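 Kinase reactions ran with or without test compound (final DMSO 1%) on a fluorescein-tagged H3 peptide. Progressive binding solution was added to terminate them. After a half-hour room-temperature incubation, polarization was measured.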

T47D cells = assay: Cell-based assay: anti-proliferative activity, Cell Counting Kit-8, 72 hours (T47D)
Outline: as §1

DU4475 cells [2] = assay: Cell-based assay: anti-proliferative activity, Cell Counting Kit-8, 72 hours (DU4475)
A549 cells = assay: Cell-based assay: anti-proliferative activity, Cell Counting Kit-8, 72 hours (A549); conditions: 72 hours
Outline: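 Cell Counting Kit-8 read-out of A549 growth after 72 hours of inhibitor exposure, cells plated in 96-well format. Values reported as IC50.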

22Rv1 cells [3] = assay: Cell-based assay: anti-proliferative activity, Cell Counting Kit-8, 72 hours (22Rv1); conditions: Homo sapiens; remark: listed apart in the source
DU4475 cells [4] = assay: Cell-based assay: anti-proliferative activity, Cell Counting Kit-8, 72 hours (DU4475); remark: listed apart in the source
22Rv1 = assay: Cell-based assay: anti-proliferative activity, Cell Counting Kit-8, 72 hours (22Rv1); conditions: Homo sapiens; 22Rv1 cells
Protocol: Active candidate inhibitors against MELK were evaluated for their target-specific cytotoxicity using T47D, A549, BT-549, and HT-1197 cells was used for negative control. 100 micro-L of cell suspension was seeded onto 96-well microtiter plate (ViewPlate-96FTC, PerkinElmer). The initial cell concentration of T47D, A549, BT-549, and HT-1197 were 3,000 cells/well, 2,000 cells/well and 2,500 cells/well, respectively. Cellular growth was determined using Cell Counting Kit-8 (DOJINDO) at 72 hours after the exposure of the candidate inhibitors. […] Accurate IC50 values were calculated as described previously.

DU4475 = assay: Cell-based assay: anti-proliferative activity, Cell Counting Kit-8, 72 hours (DU4475)
[5] = HT1197 cells (negative control), hydrochloride
[6] = HT1197 cells (negative control, no MELK expression), hydrochloride
[7] = Homo sapiens, HT1197, 72 h, HT1197 cells (negative control)
[8] = HT1197 cells (negative control, no MELK expression)
[9] = 50 micro-M ATP, FITC-labeled histone H3 peptide substrate, IMAP fluorescence polarization
[10] = Homo sapiens, HT1197, 72 h, HT1197 cells (negative control, no MELK expression)
[11] = Homo sapiens, DU-4475, DU4475 cells

Chain of MELK (Q14680 whole entry, looked up): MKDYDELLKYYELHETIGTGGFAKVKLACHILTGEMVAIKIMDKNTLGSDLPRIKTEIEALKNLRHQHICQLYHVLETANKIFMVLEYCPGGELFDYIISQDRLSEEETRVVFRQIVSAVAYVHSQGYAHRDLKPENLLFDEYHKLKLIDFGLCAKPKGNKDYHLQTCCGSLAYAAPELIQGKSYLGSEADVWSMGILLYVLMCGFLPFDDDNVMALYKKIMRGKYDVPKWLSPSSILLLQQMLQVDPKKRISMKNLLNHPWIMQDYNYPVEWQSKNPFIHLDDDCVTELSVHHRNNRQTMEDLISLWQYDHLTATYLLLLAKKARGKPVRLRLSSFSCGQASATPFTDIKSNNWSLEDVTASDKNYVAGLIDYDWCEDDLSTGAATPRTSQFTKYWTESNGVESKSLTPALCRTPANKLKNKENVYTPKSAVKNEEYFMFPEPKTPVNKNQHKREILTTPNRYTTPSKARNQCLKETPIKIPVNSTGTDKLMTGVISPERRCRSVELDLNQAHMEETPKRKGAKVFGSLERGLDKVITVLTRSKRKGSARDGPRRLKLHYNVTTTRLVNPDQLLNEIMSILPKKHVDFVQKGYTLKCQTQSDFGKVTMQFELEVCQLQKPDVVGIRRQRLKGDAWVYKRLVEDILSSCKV

CN(C)CCc1ccc(Nc2c(C(=O)C3CC3)cnc3ccc(-c4cc(Cl)c(O)c(Cl)c4)cc23)cc1 [Example 614, cyclopropyl(6-(3,5-dichloro-4-hydroxyphenyl)-4-(4-(2-(dimethylamino)ethyl)phenylamino)quinolin-3-yl)methanone hydrochloride]
IC50 (HT-1197 cells; [5]): 1.6 µM | IC50 (22Rv1 cells [1]): 0.12 µM | IC50 (MELK; hydrochloride): 0.0016 µM | IC50 (T47D cells; 72 hours, hydrochloride): 0.12 µM | IC50 (DU4475 cells [2]; hydrochloride): 0.024 µM

CC(C)(N)c1ccc(Nc2c(C(=O)C3CC3)cnc3ccc(-c4cc(Cl)c(O)c(Cl)c4)cc23)cc1 [Example 602, {4-[4-(2-Aminopropan-2-yl)phenylamino]-6-(3,5-dichloro-4-hydroxyphenyl)quinolin-3-yl}(cyclopropyl)methanone]
IC50 (HT-1197 cells; HT1197 cells (negative control)): 0.73 µM | IC50 (A549 cells): 0.074 µM | IC50 (22Rv1 cells [1]): 0.082 µM | IC50 (MELK): 0.0011 µM | IC50 (T47D cells; 72 hours): 0.13 µM | IC50 (DU4475 cells [2]): 0.038 µM

CN[C@H]1CC[C@H](Nc2c(C(C)=O)cnc3ccc(-c4cc(Cl)c(O)c(OC)c4)cc23)CC1 [Example 543, 1-(6-(3-chloro-4-hydroxy-5-methoxyphenyl)-4-(1R,4R)-4-(methylamino)cyclohexylamino)quinolin-3-yl)ethanone dihydrochloride]
IC50 (HT-1197 cells; HT1197 cells (negative control), dihydrochloride): 1.1 µM | IC50 (A549 cells; dihydrochloride): 0.076 µM | IC50 (22Rv1 cells [1]): 0.14 µM | IC50 (MELK; dihydrochloride): 0.0018 µM | IC50 (T47D cells; 72 hours, dihydrochloride): 0.047 µM | IC50 (DU4475 cells [2]; dihydrochloride): 0.051 µM

CC(=O)c1cnc2ccc(-c3cc(Cl)c(O)c(Cl)c3)cc2c1N[C@H]1CC[C@H](CCN(C)C)CC1 [Example 740, 1-(6-(3,5-dichloro-4-hydroxyphenyl)-4-(trans-4-(2-(dimethylamino)ethyl)cyclohexylamino)quinolin-3-yl)ethanone hydrochloride]
IC50 (22Rv1 cells [3]): 0.17 µM | IC50 (HT-1197 cells; [6]): 3.5 µM | IC50 (DU4475 cells [4]; hydrochloride): 0.087 µM | IC50 (T47D cells; 72 hours, hydrochloride): 0.099 µM

O=C(c1cnc2ccc(-c3cc(F)c(O)c(Cl)c3)cc2c1N[C@H]1CC[C@H](CN2CCCC2)CC1)C1CC1 [Example 588, (6-(3-chloro-5-fluoro-4-hydroxyphenyl)-4-(1R,4R)-4-(pyrrolidin-1-ylmethyl)cyclohexylamino)quinolin-3-yl)(cyclopropyl)methanone hydrochloride]
IC50 (HT-1197 cells; [5]): 0.46 µM | IC50 (A549 cells; hydrochloride): 0.096 µM | IC50 (22Rv1 cells [1]): 0.16 µM | IC50 (MELK; hydrochloride): 0.0037 µM | IC50 (T47D cells; 72 hours, hydrochloride): 0.091 µM | IC50 (DU4475 cells [2]; hydrochloride): 0.063 µM

CC(=O)c1cnc2ccc(-c3cc(Cl)c(O)c(Cl)c3)cc2c1Nc1ccc(CN2CCCC2)cc1 [Example 416, 1-(6-(3,5-dichloro-4-hydroxyphenyl)-4-(4-(pyrrolidin-1-ylmethyl)phenylamino)quinolin-3-yl)ethanone hydrobromide]
IC50 (22Rv1): 0.19 µM | IC50 (HT-1197 cells; HT1197 cells (negative control, no MELK expression), hydrobromide): 6.1 µM | IC50 (A549 cells; hydrobromide): 0.11 µM | IC50 (DU4475; DU4475 cells, hydrobromide): 0.053 µM | IC50 (MELK; 50 micro-M ATP, FITC-labeled histone H3 peptide substrate, IMAP fluorescence polarization, hydrobromide): 0.0032 µM | IC50 (T47D cells; 72 hours, hydrobromide): 0.066 µM

CC(C)(N)c1ccc(Nc2c(C(=O)C3CC3)cnc3ccc(-c4cc(F)c(O)c(Cl)c4)cc23)cc1 [Example 604, {4-[4-(2-Aminopropan-2-yl)phenylamino]-6-(3-chloro-5-fluoro-4-hydroxyphenyl)quinolin-3-yl}(cyclopropyl)methanone]
IC50 (HT-1197 cells; [7]): 0.79 µM | IC50 (A549 cells; Homo sapiens, A549, 72 h): 0.097 µM | IC50 (22Rv1 cells [1]): 0.087 µM | IC50 (MELK): 0.0028 µM | IC50 (T47D cells; Homo sapiens, T47D, 72 h): 0.094 µM | IC50 (DU4475 cells [2]; Homo sapiens, DU-4475, 72 h): 0.039 µM

CC(=O)c1cnc2ccc(-c3cc(F)c(O)c(Cl)c3)cc2c1Nc1ccc(N2CCCC(N)C2)nc1 (stereo not drawn) [Example 733, 1-(4-(6-(3-aminopiperidin-1-yl)pyridin-3-ylamino)-6-(3-chloro-5-fluoro-4-hydroxyphenyl)quinolin-3-yl)ethanone]
IC50 (22Rv1 cells [3]): 0.0064 µM | IC50 (HT-1197 cells; [8]): 0.064 µM | IC50 (A549 cells): 0.0086 µM | IC50 (DU4475 cells [4]): 0.01 µM | IC50 (MELK): 0.00099 µM | IC50 (T47D cells; 72 hours): 0.0035 µM

CC(=O)c1cnc2ccc(-c3cc(F)c(O)c(Cl)c3)cc2c1Nc1ccc(N2CCN(C)CC2)nc1 [Example 488, 1-(6-(3-chloro-5-fluoro-4-hydroxyphenyl)-4-(6-(4-methylpiperazin-1-yl)pyridin-3-ylamino)quinolin-3-yl)ethanone]
IC50 (22Rv1): 0.38 µM | IC50 (HT-1197 cells; [8]): 2.1 µM | IC50 (A549 cells): 0.2 µM | IC50 (DU4475; DU4475 cells): 0.14 µM | IC50 (MELK): 0.0041 µM | IC50 (T47D cells; 72 hours): 0.084 µM

CN(C)C[C@H]1CC[C@H](Nc2c(S(C)(=O)=O)cnc3ccc(-c4cc(Cl)c(O)c(Cl)c4)cc23)CC1 [Example 421]
IC50 (22Rv1): 0.64 µM | IC50 (HT-1197 cells; [8]): 2.1 µM | IC50 (A549 cells): 0.68 µM | IC50 (DU4475; DU4475 cells): 0.086 µM | IC50 (MELK; [9]): 0.0017 µM | IC50 (T47D cells; 72 hours): 0.47 µM

O=C(c1cnc2ccc(-c3cc(F)c(O)c(Cl)c3)cc2c1Nc1ccc(CN2CCCC2)cc1)C1CC1 [Example 396, {6-(3-chloro-5-fluoro-4-hydroxyphenyl)-4-[4-(pyrrolidin-1-ylmethyl)phenylamino]quinolin-3-yl}(cyclopropyl)methanone]
IC50 (22Rv1): 0.38 µM | IC50 (HT-1197 cells; [10]): 1.6 µM | IC50 (A549 cells; Homo sapiens, A549, 72 h): 0.087 µM | IC50 (DU4475; [11]): 0.084 µM | IC50 (MELK; [9]): 0.0088 µM | IC50 (T47D cells; Homo sapiens, T47D, 72 h): 0.21 µM

O=C(c1cnc2ccc(-c3cc(F)c(O)c(Cl)c3)cc2c1Nc1ccc(N2CCNCC2)nc1)C1CC1 [Example 425, (6-(3-chloro-5-fluoro-4-hydroxyphenyl)-4-(6-(piperazin-1-yl)pyridin-3-ylamino)quinolin-3-yl)(cyclopropyl)methanone]
IC50 (22Rv1): 0.082 µM | IC50 (HT-1197 cells; [10]): 1.4 µM | IC50 (A549 cells; Homo sapiens, A549, 72 h): 0.16 µM | IC50 (DU4475; [11]): 0.044 µM | IC50 (MELK; [9]): 0.0027 µM | IC50 (T47D cells; Homo sapiens, T47D, 72 h): 0.042 µM

CN1CCN(C[C@H]2CC[C@H](Nc3c(C(=O)C4CC4)cnc4ccc(-c5cc(Cl)c(O)c(Cl)c5)cc34)CC2)CC1 [Example 619, cyclopropyl(6-(3,5-dichloro-4-hydroxyphenyl)-4-(1R,4R)-4-((4-methylpiperazin-1-yl)methyl)cyclohexylamino)quinolin-3-yl)methanone hydrochloride]
IC50 (HT-1197 cells; [5]): 2.6 µM | IC50 (A549 cells; hydrochloride): 0.28 µM | IC50 (22Rv1 cells [1]): 0.51 µM | IC50 (T47D cells; 72 hours, hydrochloride): 0.32 µM | IC50 (DU4475 cells [2]; hydrochloride): 0.15 µM

CN[C@H]1CC[C@H](Nc2c(C(=O)C3CC3)cnc3ccc(-c4cc(Cl)c(O)c(OC)c4)cc23)CC1 [Example 517, {6-(3-Chloro-4-hydroxy-5-methoxyphenyl)-4-[trans-4-(methylamino)cyclohexylamino]quinolin-3-yl}(cyclopropyl)methanone]
IC50 (HT-1197 cells; [7]): 0.38 µM | IC50 (A549 cells; Homo sapiens, A549, 72 h): 0.072 µM | IC50 (22Rv1 cells [1]): 0.18 µM | IC50 (MELK): 0.0014 µM | IC50 (T47D cells; Homo sapiens, T47D, 72 h): 0.067 µM | IC50 (DU4475 cells [2]; Homo sapiens, DU-4475, 72 h): 0.048 µM

NCc1ccc(Nc2c(C(=O)C3CC3)cnc3ccc(-c4cc(F)c(O)c(Cl)c4)cc23)cc1 [Example 505, (4-(4-(aminomethyl)phenylamino)-6-(3-chloro-5-fluoro-4-hydroxyphenyl)quinolin-3-yl)(cyclopropyl)methanone hydrochloride]
IC50 (22Rv1): 0.088 µM | IC50 (HT-1197 cells; [6]): 0.4 µM | IC50 (A549 cells; hydrochloride): 0.067 µM | IC50 (DU4475; DU4475 cells, hydrochloride): 0.026 µM | IC50 (MELK; hydrochloride): 0.0027 µM | IC50 (T47D cells; 72 hours, hydrochloride): 0.063 µM

CN(C)Cc1ccc(Nc2c(S(C)(=O)=O)cnc3ccc(-c4cc(Cl)c(O)c(Cl)c4)cc23)cc1 [Example 401, 2,6-dichloro-4-(4-(4-((dimethylamino)methyl)phenylamino)-3-(methylsulfonyl)quinolin-6-yl)phenol hydrochloride]
IC50 (22Rv1): 0.52 µM | IC50 (HT-1197 cells; [10]): 2.2 µM | IC50 (A549 cells; hydrochloride): 0.44 µM | IC50 (DU4475; DU4475 cells, hydrochloride): 0.11 µM | IC50 (MELK; 50 micro-M ATP, FITC-labeled histone H3 peptide substrate, IMAP fluorescence polarization, hydrochloride): 0.0055 µM | IC50 (T47D cells; 72 hours, hydrochloride): 0.19 µM

O=C(c1cnc2ccc(-c3cc(Cl)c(O)c(Cl)c3)cc2c1N[C@H]1CC[C@H](CN2CCCC2)CC1)C1CC1 [Example 585, cyclopropyl(6-(3,5-dichloro-4-hydroxyphenyl)-4-(1R,4R)-4-(pyrrolidin-1-ylmethyl)cyclohexylamino)quinolin-3-yl)methanone hydrochloride]
IC50 (HT-1197 cells; [5]): 0.78 µM | IC50 (A549 cells; hydrochloride): 0.073 µM | IC50 (22Rv1 cells [1]): 0.1 µM | IC50 (T47D cells; 72 hours, hydrochloride): 0.12 µM | IC50 (DU4475 cells [2]; hydrochloride): 0.043 µM

CN(C)C1CCN(Cc2ccc(Nc3c(C(=O)C4CC4)cnc4ccc(-c5cc(Cl)c(O)c(Cl)c5)cc34)cc2)C1 (stereo not drawn) [Example 695, cyclopropyl(6-(3,5-dichloro-4-hydroxyphenyl)-4-(4-((3-(dimethylamino)pyrrolidin-1-yl)methyl)phenylamino)quinolin-3-yl)methanone hydrochloride]
IC50 (22Rv1 cells [3]): 0.23 µM | IC50 (HT-1197 cells; [10]): 5.8 µM | IC50 (A549 cells; hydrochloride): 0.13 µM | IC50 (DU4475 cells [4]; hydrochloride): 0.1 µM | IC50 (T47D cells; 72 hours, hydrochloride): 0.26 µM
